In patent US20230012368A1 (Hoffmann-La Roche Inc., priority 2018, published 2023) one finds IC90 data, which are given here for 27 compounds.

Where a name gives a salt, the structure may show the parent alone. Read-outs that look alike come from different tables or passages of the source.

For this assay, the system named is Acinetobacter baumannii ATCC 17978. In words: Antimicrobial susceptibility testing: 90% growth inhibitory concentration (IC90) determination. Type of assay: cell-based. The conditions noted are these: 90% growth inhibitory concentration, Acinetobacter baumannii ATCC17978, Iso-Sensitest broth, OD 600 nm over 16h, read-out: ATCC17978 IC90. The method in brief:
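Growth of the Acinetobacter baumannii strain was followed by optical density at 600 nm every 20 minutes for 16h at 35±2° C. Inoculum was ~5×10^(5) CFU/ml in Iso-Sensitest medium, with twofold compound dilutions (e.g. 50 to 0.097 μM final). The 90% inhibitory concentration was derived in log-phase growth.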

Setting [1] is: Acinetobacter baumannii, ATCC17978, 16 h.

In the case of `CCc1cc(Nc2nccn3c(-c4ccc(OC)c(F)c4F)cnc23)ccc1C(=O)N[C@@H](C)CNC(=O)[C@@H](N)CCCCN` [Example 453, N-[(1S)-2-[[(2S)-2,6-diaminohexanoyl]amino]-1-methyl-ethyl]-4-[[3-(2,3-difluoro-4-methoxy-phenyl)imidazo[1,2-a]pyrazin-8-yl]amino]-2-ethyl-benzamide], the 90% effect concentration (IC90) (usually the point of the concentration-response curve where the effect stands at 90%) under setting [1] came to 0.32 µM.
On the same count and under the same terms, the figure for `CCc1cc(Nc2nccn3c(-c4ccc(OC)c(F)c4F)cnc23)ccc1C(=O)NCC1CN(C)C1` [Example 297, 4-[[3-(2,3-difluoro-4-methoxyphenyl)imidazo[1,2-a]pyrazin-8-yl]amino]-2-ethyl-N-[(1-methylazetidin-3-yl)methyl]benzamide] is 0.15 µM.
On the same count and under the same terms, the figure for `COc1ccc(-c2cnc3c(Nc4ccc5c(c4)CCNC5=O)nccn23)c(Cl)c1` [Example 179, 6-[[3-(2-chloro-4-methoxyphenyl)imidazo[1,2-a]pyrazin-8-yl]amino]-3,4-dihydro-2H-isoquinolin-1-one] is 1.7 µM.
`CCc1cc(Nc2nccn3c(-c4ccc(Oc5ccc(C(=O)NCCCN)cn5)c(F)c4F)cnc23)ccc1C(=O)NC` [Example 507, N-(3-aminopropyl)-6-[4-[8-[3-ethyl-4-(methylcarbamoyl)anilino]imidazo[1,2-a]pyrazin-3-yl]-2,3-difluoro-phenoxy]pyridine-3-carboxamide; formic acid]: the 90% effect concentration (IC90) is 0.5 µM.
In the case of `COc1ccc(-c2cnc3c(Nc4ccc(C(=O)NCC5CCN(C)CC5)c(C)c4)nccn23)c(F)c1F` [Example 62, 4-((3-(2,3-difluoro-4-methoxyphenyl)imidazo [1,2-a]pyrazin-8-yl)amino)-2-methyl-N-((1-methylpiperidin-4-yl)methyl)benzamide], the 90% effect concentration (IC90) under setting [1] turned out to be 0.25 µM.
For `CCc1cc(Nc2nccn3c(-c4ccc(OC)c(F)c4F)cnc23)ccc1C(=O)NCC1CCCN1` (stereo not drawn) [Example 527, 4-((3-(2,3-difluoro-4-methoxyphenyl)imidazo[1,2-a]pyrazin-8-yl)amino)-2-ethyl-N-(pyrrolidin-2-ylmethyl)benzamide hydrochloride], the IC90 under setting [1] was found to be 0.48 µM.
Still for that read-out and setting: the figure for `CCc1cc(Nc2nccn3c(-c4ccc(OC)c(F)c4Cl)cnc23)ccc1C(=O)NCCNC(=O)[C@H](N)CCCNC(=N)N` [Example 129, N-[2-[[(2R)-2-amino-5-guanidino-pentanoyl]amino]ethyl]-4-[[3-(2-chloro-3-fluoro-4-methoxy-phenyl)imidazo[1,2-a]pyrazin-8-yl]amino]-2-ethyl-benzamide formate] is 0.25 µM; for `Cc1cc(Nc2nccn3c(-c4ccc(Cl)c(F)c4F)cnc23)ccc1C(=O)N(C)CCCN` [Example 228, N-(3-aminopropyl)-4-[[3-(4-chloro-2,3-difluorophenyl)imidazo[1,2-a]pyrazin-8-yl]amino]-N,2-dimethylbenzamide;hydrochlo-ride] it is 1.2 µM; for `COc1ccc(-c2cnc3c(Nc4ccc(C(=O)N(C)CC(=O)N5CCNC(=O)C5)c(C)c4)nccn23)cc1F` [Example 6] it is 0.64 µM.
On the same count and under the same terms, the figure for `COc1ccc(-c2cnc3c(Nc4ccc(C(=O)N[C@@H](C)CN)c(Cl)c4)nccn23)c(F)c1F` [Example 505, #N!-[(2#S!)-1-aminopropan-2-yl]-2-chloro-4-[[3-(2,3-difluoro-4-methoxyphenyl)imidazo[1,2-a]pyrazin-8-yl]amino]benzamide;dihydro-chloride] is 0.27 µM; for `CCc1cc(Nc2nccn3c(-c4ccc(OC)c(F)c4F)cnc23)ccc1C(=O)NCCCNC(=O)C1CNC(=N)N1` (stereo not drawn) [Example 356, N-[3-[[4-[[3-(2,3-difluoro-4-methoxyphenyl)imidazo[1,2-a]pyrazin-8-yl]amino]-2-ethylbenzoyl]amino]propyl]-2-iminoimidazolidine-4-carboxamide] it is 0.05 µM.
Same read-out and setting: the figure for `CCc1cc(Nc2nccn3c(-c4ccc(Oc5ccccn5)c(F)c4F)cnc23)ccc1C(=O)NC` [Example 472, 4-[[3-[2,3-difluoro-4-(2-pyridyloxy)phenyl]imidazo [1,2-a]pyrazin-8-yl]amino]-2-ethyl-N-methyl-benzamide] is 0.21 µM; for `CCc1cc(Nc2nccn3c(-c4ccc(OCC#CCN)c(F)c4F)cnc23)ccc1C(=O)NCCCN` [Example 287, 4-[[3-[4-(4-aminobut-2-ynoxy)-2,3-difluorophenyl]imidazo[1,2-a]pyrazin-8-yl]amino]-N-(3-aminopropyl)-2-ethylbenzamide] it is 2.9 µM.
`CCc1cc(Nc2nccn3c(-c4ccc(OC)c(F)c4F)cnc23)ccc1C(=O)NCCNC(=O)C(CNC(=N)N)NC(=O)[C@@H](N)CCC(=O)O` (mixture of isomers) [Example 461, (4S)-4-amino-5-((1-((2-(4-((3-(2,3-difluoro-4-methoxyphenyl)imidazo[1,2-a]pyrazin-8-yl)amino)-2-ethylbenzamido)ethyl)amino)-3-guanidino-1-oxopropan-2-yl)amino)-5-oxopentanoic acid trihydrochloride]: under setting [1], the IC90 came out at 0.48 µM.
The same measure, in the same setting: the figure for `COc1ccc(-c2cnc3c(Nc4ccc(C(=O)NCCCS(=O)(=O)N5CCNCC5)c(C)c4)nccn23)c(F)c1F` [Example 68, 4-((3-(2,3-difluoro-4-methoxyphenyl)imidazo [1,2-a]pyrazin-8-yl)amino)-2-methyl-N-(3-(piperazin-1-ylsulfonyl)propyl) benzamide] is 0.17 µM; for `COc1ccc(-c2cnc3c(Nc4ccc5c(c4)CCN(CCCN)C5=O)nccn23)c(F)c1F` [Example 164, 2-(3-aminopropyl)-6-[[3-(2,3-difluoro-4-methoxy-phenyl)imidazo[1,2-a]pyrazin-s-yl]amino]-3,4-dihydroisoquinolin-1-one] it is 0.29 µM; for `CCc1cc(Nc2nccn3c(-c4ccc(OC)c(F)c4Cl)cnc23)ccc1C(=O)NCCNC(=O)[C@@H](N)CCCNC(=N)N` [Example 126, N-[2-[[(2S)-2-amino-5-guanidino-pentanoyl]amino]ethyl]-4-[[3-(2-chloro-3-fluoro-4-methoxy-phenyl)imidazo[1,2-a]pyrazin-8-yl]amino]-2-ethyl-benzamide formate] it is 0.21 µM.
The same measure, in the same setting: the figure for `CCc1cc(Nc2nccn3c(-c4ccc(Oc5ccncn5)c(F)c4F)cnc23)ccc1C(=O)NCCNC(=O)CCN` [Example 432, N-[2-(3-aminopropanoylamino)ethyl]-4-[[3-(2,3-difluoro-4-pyrimidin-4-yloxy-phenyl)imidazo[1,2-a]pyrazin-8-yl]amino]-2-ethyl-benzamide; formic acid] is 0.5 µM.
The same measure, in the same setting: the figure for `COc1ccc(-c2cnc3c(Nc4ccc(C(=O)N(C)Cc5ccncc5)c(C)c4)nccn23)cc1F` [Example 73, 4-((3-(3-fluoro-4-methoxyphenyl)imidazo [1,2-a]pyrazin-8-yl)amino)-N,2-dimethyl-N-(pyridin-4-ylmethyl)benzamide] is 0.14 µM.
Regarding `CCc1cc(Nc2nccn3c(-c4ccc(Oc5ccccn5)c(F)c4F)cnc23)ccc1C(=O)NCCCCC(=O)N1CCN[C@H](CO)C1` [Example 477, 4-[[3-[2,3-difluoro-4-(2-pyridyloxy)phenyl]imidazo [1,2-a]pyrazin-8-yl]amino]-2-ethyl-N-[5-[(3S)-3-(hydroxymethyl)piperazin-1-yl]-5-oxo-pentyl]benzamide], the IC90 under setting [1] is 0.33 µM.
The same measure, in the same setting: the figure for `N#CCOc1ccc(-c2cnc3c(Nc4ccc(C(=O)NCCCCCCCN)c(Cl)c4)nccn23)c(F)c1F` [Example 521, N-(7-aminoheptyl)-2-chloro-4-((3-(4-(cyanomethoxy)-2,3-difluorophenyl)imidazo[1,2-a]pyrazin-8-yl)amino)benzamide] is 0.024 µM; for `CCc1cc(Nc2nccn3c(-c4ccc(OC)c(F)c4F)cnc23)ccc1C(=O)NCCNC(=O)CCCNCCCN` [Example 564, N-(2-(4-((3-aminopropyl)amino)butanami-do)ethyl)-4-((3-(2,3-difluoro-4-methoxyphenyl)imidazo[1,2-a]pyrazin-8-yl)amino)-2-ethylbenzamide trihydrochloride] it is 0.5 µM; for `CNC(=O)c1ccc(Nc2nccn3c(-c4ccc(OC)c(Cl)c4)cnc23)cc1` [Example 181, 4-[[3-(3-chloro-4-methoxyphenyl)imidazo[1,2-a]pyrazin-8-yl]amino]-N-methylbenzamide;2,2,2-trifluoroacetic acid] it is 1.3 µM.
On the same count and under the same terms, the figure for `CC[C@@]1(O)CN[C@H](C(=O)NCCNC(=O)c2ccc(Nc3nccn4c(-c5ccc(OCC#N)c(F)c5F)cnc34)cc2C)C1` [Example 366, (2S,4S)-N-[2-[[4-[[3-[4-(cyanomethoxy)-2,3-difluorophenyl]imidazo[1,2-a]pyrazin-8-yl]amino]-2-methylbenzoyl]amino]ethyl]-4-ethyl-4-hydroxypyrrolidine-2-carboxamide] is 0.1 µM.
Regarding `Cc1cc(Nc2nccn3c(-c4ccc(Cl)c(F)c4F)cnc23)ccc1C(=O)NC(C)CCN` (stereo not drawn) [Example 318, N-(4-aminobutan-2-yl)-4-[[3-(4-chloro-2,3-difluorophenyl)imidazo[1,2-a]pyrazin-8-yl]amino]-2-methylbenzamide; hydrochloride], the IC90 came to 2.5 µM.
Turning to `COc1ccc(-c2cnc3c(Nc4ccc(C(=O)NCCN5CCNCC5)c(C)c4)nccn23)c(F)c1F` [Example 56, 4-((3-(2,3-difluoro-4-methoxyphenyl)imidazo [1,2-a]pyrazin-8-yl)amino)-2-methyl-N-(2-(piperazin-1-yl)ethyl)benzamide hydrochloride], the IC90 was 0.25 µM.
On to `CCc1cc(Nc2nccn3c(-c4ccc(Oc5ccncn5)c(F)c4F)cnc23)ccc1C(=O)NCCNC(=O)[C@@H](N)CCNC(=N)N` [Example 440, N-[2-[[(2S)-2-amino-4-guanidino-butanoyl]amino]ethyl]-4-[[3-(2,3-difluoro-4-pyrimidin-4-yloxy-phenyl)imidazo[1,2-a]pyrazin-8-yl]amino]-2-ethyl-benzamide; formic acid], for which the concentration for an effect of 90% (IC90) under setting [1] amounted to 0.52 µM.
